Data on 24 molecules can be found in article PMC6556873, “Rapid Covalent-Probe Discovery by Electrophile-Fragment Screening” (Journal of the American Chemical Society, 2019).

The term viability denotes a read-out of living cells in per cent, often relative to untreated cells.

Data set [1] has as its target T1, PCAF (Homo sapiens, UniProt Q92831).
T1 construct: gene KAT2B
Further details: Intact protein LC/MS covalent labelling, fragments in pools of five, 200 uM each, 4 °C. The note with it: 24 h, 4 °C, pool of five; 200 µM; covalent.

For data set [2], the target named is T2, NUDT7 (Homo sapiens, UniProt P0C024).
T2 construct: residues 14-235, E. coli, pNIC28-Bsa4, N-terminal His6 tag removed by TEV, construct 26672 Da
Set-up: Intact protein LC/MS covalent labelling, fragments in pools of five, 200 uM each, 4 °C. The note with it: 24 h, 4 °C, pool of five; 200 µM; covalent.

The target of data set [3] is T3, BSA (Bos taurus, UniProt P02769).
T3 construct: gene ALB
Set-up: Intact protein LC/MS covalent labelling, fragments in pools of five, 200 uM each, 4 °C. Conditions: 24 h, 4 °C, pool of five; 200 µM; covalent.

Data set [4] has as its target T4, OTUB2 (OTUB2A) (Homo sapiens, UniProt Q96DC9).
T4 construct: full length residues 1-234, E. coli BL21(DE3)-R3, His tag removed by TEV, construct 27312 Da
T4 sequence (Q96DC9 1-234): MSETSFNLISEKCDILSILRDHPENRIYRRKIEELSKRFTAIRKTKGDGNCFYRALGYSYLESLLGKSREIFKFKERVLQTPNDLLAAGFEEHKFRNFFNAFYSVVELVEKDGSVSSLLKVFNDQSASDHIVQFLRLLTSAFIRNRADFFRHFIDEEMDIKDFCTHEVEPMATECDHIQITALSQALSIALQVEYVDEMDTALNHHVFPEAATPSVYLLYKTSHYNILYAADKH
Set-up: Intact protein LC/MS covalent labelling, fragments in pools of five, 200 uM each, 4 °C. Conditions: 24 h, 4 °C, pool of five; 200 µM; covalent.

Data set [5] is described as follows: in vitro. Conditions: human, hek293 cells. Further details: species or system HB2, CCD841.
A short description of data set [6]: in vitro. Conditions: human, hb2 cells, read-out: HB-2 Cells Viability (%). Set-up: species or system CCD841, HEK293.
The nature of data set [7]: in vitro. Conditions: human, ccd841 cells. Further details: species or system HB2, HEK293.

Read-outs that look alike come from different tables or passages of the source.

T1 sequence (Q92831 whole entry): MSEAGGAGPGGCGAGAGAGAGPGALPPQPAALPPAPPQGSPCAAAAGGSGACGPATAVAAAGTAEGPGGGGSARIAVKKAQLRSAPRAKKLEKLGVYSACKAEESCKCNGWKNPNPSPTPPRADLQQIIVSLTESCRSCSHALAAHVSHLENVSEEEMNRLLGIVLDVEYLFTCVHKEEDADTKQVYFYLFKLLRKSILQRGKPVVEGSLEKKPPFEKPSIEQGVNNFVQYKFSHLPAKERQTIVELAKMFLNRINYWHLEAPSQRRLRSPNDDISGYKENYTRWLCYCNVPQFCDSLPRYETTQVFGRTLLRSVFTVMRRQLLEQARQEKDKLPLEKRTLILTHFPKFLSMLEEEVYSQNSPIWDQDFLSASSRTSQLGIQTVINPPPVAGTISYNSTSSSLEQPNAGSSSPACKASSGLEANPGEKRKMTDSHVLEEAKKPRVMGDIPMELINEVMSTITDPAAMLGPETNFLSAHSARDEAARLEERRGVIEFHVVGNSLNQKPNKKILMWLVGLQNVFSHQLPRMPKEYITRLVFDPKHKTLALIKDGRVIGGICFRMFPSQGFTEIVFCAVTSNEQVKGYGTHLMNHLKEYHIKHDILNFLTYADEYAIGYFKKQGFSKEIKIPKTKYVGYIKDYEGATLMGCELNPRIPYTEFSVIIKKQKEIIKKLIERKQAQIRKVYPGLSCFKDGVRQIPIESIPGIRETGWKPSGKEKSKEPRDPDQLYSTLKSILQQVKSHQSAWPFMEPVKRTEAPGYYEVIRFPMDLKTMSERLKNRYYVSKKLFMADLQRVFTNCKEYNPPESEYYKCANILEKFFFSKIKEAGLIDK
T2 sequence (P0C024 14-235): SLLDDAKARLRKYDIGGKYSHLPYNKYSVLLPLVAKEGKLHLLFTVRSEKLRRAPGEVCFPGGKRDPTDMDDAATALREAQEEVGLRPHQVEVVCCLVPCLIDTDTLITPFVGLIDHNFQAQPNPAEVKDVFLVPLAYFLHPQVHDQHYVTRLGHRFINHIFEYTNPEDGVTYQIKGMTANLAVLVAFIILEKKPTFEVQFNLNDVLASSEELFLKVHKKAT
T3 sequence (P02769 whole entry): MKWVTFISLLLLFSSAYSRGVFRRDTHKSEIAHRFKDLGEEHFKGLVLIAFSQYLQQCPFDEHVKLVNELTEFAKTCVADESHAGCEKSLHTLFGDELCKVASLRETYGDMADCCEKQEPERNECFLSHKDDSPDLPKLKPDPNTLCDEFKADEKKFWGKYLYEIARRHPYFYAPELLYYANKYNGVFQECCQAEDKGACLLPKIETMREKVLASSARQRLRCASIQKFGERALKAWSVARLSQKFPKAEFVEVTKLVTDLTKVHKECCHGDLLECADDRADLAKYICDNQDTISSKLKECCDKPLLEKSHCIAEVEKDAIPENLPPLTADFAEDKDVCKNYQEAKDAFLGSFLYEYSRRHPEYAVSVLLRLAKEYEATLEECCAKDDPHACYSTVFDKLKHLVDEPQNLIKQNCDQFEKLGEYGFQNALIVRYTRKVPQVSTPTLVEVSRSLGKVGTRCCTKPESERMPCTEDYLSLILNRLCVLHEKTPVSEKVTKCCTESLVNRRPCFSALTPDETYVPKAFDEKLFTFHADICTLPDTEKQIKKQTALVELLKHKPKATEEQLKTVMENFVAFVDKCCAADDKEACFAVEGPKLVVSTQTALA

`CCCNC(=O)NC(=O)CCl` [PCM-0102702]: the PCAF in data set [1] is reported as 0. In data set [2], this molecule gave an NUDT7 of 0. The molecule also came in with a BSA in data set [3] of 0. Besides, the OTUB2 in data set [4] is 0.22. Further, the viability at 48 h, 10 µM in data set [5] came to 82.9%; in data set [6], 91.6%; in data set [7], 91.6%.

`CN(C(=O)CCl)C1CCCc2ccccc21` (stereo not drawn) [PCM-0102703] gave a PCAF in data set [1] of 0. This molecule gave an NUDT7 in data set [2] of 0.3. Also, the BSA in data set [3] is reported as 0. For the same molecule, the OTUB2 in data set [4] stood at 0. Besides, the viability at 48 h, 10 µM in data set [5] amounted to 5.8%; in data set [6], 6.6%; in data set [7], 25.8%.

In turn, `O=C(CCl)N1CCN(S(=O)(=O)c2ccc(Cl)cc2)CC1` [PCM-0102704] registered a PCAF in data set [1] of 0. This molecule also yielded an NUDT7 in data set [2] of 0.25. Further, the BSA in data set [3] amounted to 0. Moreover, the OTUB2 in data set [4] is reported as 0. Further, the viability at 48 h, 10 µM in data set [5] was 2.7%; in data set [6] it was 2.5%; in data set [7], 18.8%.

`O=C(CCl)N1CCc2cc(S(=O)(=O)N3CCCCC3)ccc21` [PCM-0102705] yielded a PCAF in data set [1] of 0. In addition, in data set [2], the NUDT7 is listed as 0. Also, in data set [3], the BSA is on record as 0. The same molecule yielded an OTUB2 in data set [4] of 0. In addition, the viability at 48 h, 10 µM in data set [5] was 51.1%; in data set [6], 4.2%; in data set [7], 28.8%.

Turning to `O=C(CCl)NCC12CC3CC(CC(C3)C1)C2` [PCM-0102706], the PCAF in data set [1] is 0. The molecule further had an NUDT7 in data set [2] of 0. The BSA in data set [3] worked out at 0. For the same molecule, the OTUB2 in data set [4] is 0.65. Besides, the results for the viability at 48 h, 10 µM in data set [5], in data set [6] and in data set [7] were 40.8%, 61.3% and 76.1%, respectively.

As to `C=CCNC(=O)NC(=O)CCl` [PCM-0102709], the PCAF in data set [1] stood at 0. For the same molecule, the NUDT7 in data set [2] came out at 0. Besides, the BSA in data set [3] amounted to 0. This molecule registered an OTUB2 in data set [4] of 0. Also, the viability at 48 h, 10 µM in data set [5] was 75.3%; in data set [6], 90%; in data set [7], 77.7%.

`CC(c1ccccc1)N1CCN(C(=O)CCl)CC1.Cl` (stereo not drawn) [PCM-0102710] showed a PCAF in data set [1] of 0. In data set [2], this molecule had an NUDT7 of 0. The BSA in data set [3] is reported as 0. In addition, the OTUB2 in data set [4] amounted to 0.12. Also, the viability at 48 h, 10 µM was determined as 41.3% in data set [5], 36.7% in data set [6] and 72.5% in data set [7].

For `O=C(CCl)NC(=O)c1ccc(Cl)cc1` [PCM-0102711], the PCAF in data set [1] stood at 0. Also, in data set [2], the NUDT7 amounted to 0. In addition, the BSA in data set [3] is on record as 0. The OTUB2 in data set [4] turned out to be 0. Besides, the viability at 48 h, 10 µM in data set [5] was 103%; in data set [6], 98.9%; in data set [7], 96.8%.

Regarding `C=CC(=O)NCC1COc2ccccc2O1` (stereo not drawn) [PCM-0102713], the PCAF in data set [1] was 0. Further, the NUDT7 in data set [2] came to 0.16. In data set [3], this molecule showed a BSA of 0. The molecule also came in with an OTUB2 in data set [4] of 0. For the same molecule, the results for the viability at 48 h, 10 µM in data set [5], in data set [6] and in data set [7] were 76.1%, 99% and 102%, respectively.

`C=CC(=O)N1CCN(c2nccc3sccc23)CC1` [PCM-0102715] yielded a PCAF in data set [1] of 0. This molecule also gave an NUDT7 in data set [2] of 0. In addition, in data set [3], the BSA came to 0. Moreover, the OTUB2 in data set [4] is given as 0. For the same molecule, the viability at 48 h, 10 µM in data set [5] stood at 78.2%; in data set [6], 97.2%; in data set [7] it was 92.1%.

With `C=CC(=O)NCC1CCCS1` (stereo not drawn) [PCM-0102719], the PCAF in data set [1] is on record as 0. This molecule also registered an NUDT7 in data set [2] of 0. The same molecule registered a BSA in data set [3] of 0. Further, the OTUB2 in data set [4] is on record as 0. Further, the viability at 48 h, 10 µM in data set [5] was 86.1%; in data set [6], 102%; in data set [7], 105%.

With `C=CC(=O)N1CCOCC1c1cccn1C` (stereo not drawn) [PCM-0102721], the PCAF in data set [1] amounted to 0. This molecule had an NUDT7 in data set [2] of 0. In data set [3], this molecule had a BSA of 0. The OTUB2 in data set [4] came to 0. In addition, the viability at 48 h, 10 µM in data set [5] stood at 97.2%; in data set [6], 102%; in data set [7] it was 92.8%.

For `C=CC(=O)NC1(c2nnc[nH]2)CCC1` [PCM-0102722], the PCAF in data set [1] is recorded as 0. Further, the NUDT7 in data set [2] is 0. In data set [3], this molecule yielded a BSA of 0. The molecule also gave an OTUB2 in data set [4] of 0. In addition, the viability at 48 h, 10 µM in data set [5] is 105%; in data set [6] it was 102%; in data set [7], 96.7%.

In turn, `C=CC(=O)N1CCCC(C(C)NC(=O)NC(C)(C)C)C1` (stereo not drawn) [PCM-0102723] yielded a PCAF in data set [1] of 0. Moreover, the NUDT7 in data set [2] was found to be 0. Moreover, the BSA in data set [3] is reported as 0. This molecule returned an OTUB2 in data set [4] of 0. Moreover, the values for the viability at 48 h, 10 µM in data set [5], in data set [6] and in data set [7] were 99.2%, 105% and 109%, respectively.

`C=CC(=O)NCC1=CCCCC1` [PCM-0102726] came in with a PCAF in data set [1] of 0. The NUDT7 in data set [2] worked out at 0. Moreover, the BSA in data set [3] is 0.1. This molecule also yielded an OTUB2 in data set [4] of 0. Further, the values for the viability at 48 h, 10 µM in data set [5], in data set [6] and in data set [7] were 89.9%, 105% and 99.1%, respectively.

As for `C=CC(=O)NCc1nnc(C(C)(C)C)s1` [PCM-0102727], in data set [1], the PCAF is 0. In addition, the NUDT7 in data set [2] is listed as 0. In addition, the BSA in data set [3] was found to be 0. In data set [4], this molecule gave an OTUB2 of 0.18. Further, the viability at 48 h, 10 µM is 100% in data set [5], 105% in data set [6] and 108% in data set [7].

`C=CC(=O)N(C)CC(=O)N1c2ccccc2NC(=O)CC1C` (stereo not drawn) [PCM-0102729] registered a PCAF in data set [1] of 0. The molecule also displayed an NUDT7 in data set [2] of 0. In addition, the BSA in data set [3] was found to be 0. Moreover, the OTUB2 in data set [4] is recorded as 0. Moreover, the results for the viability at 48 h, 10 µM in data set [5], in data set [6] and in data set [7] were 107%, 104% and 107%, respectively.

The molecule `O=C(CCl)NCc1ccc(F)cc1C(F)(F)F` [PCM-0102733] returned a PCAF in data set [1] of 0. In addition, the NUDT7 in data set [2] is 0.06. In addition, the BSA in data set [3] was determined as 0. Moreover, the OTUB2 in data set [4] is 0.33. The viability at 48 h, 10 µM in data set [5] came out at 68.8%; in data set [6], 86.6%; in data set [7] it was 79.1%.

For `COC(=O)C1(NC(=O)CCl)CCCCC1` [PCM-0102734], the PCAF in data set [1] came to 0. Besides, in data set [2], the NUDT7 is 0. This molecule also returned a BSA in data set [3] of 0. Moreover, the OTUB2 in data set [4] came to 0. Also, the viability at 48 h, 10 µM is 112% in data set [5], 98.3% in data set [6] and 95.1% in data set [7].

In turn, `C#Cc1cccc(NC(=O)CCl)c1` [PCM-0102735] gave a PCAF in data set [1] of 0. This molecule had an NUDT7 in data set [2] of 0. The molecule also showed a BSA in data set [3] of 0. The same molecule yielded an OTUB2 in data set [4] of 0.09. The viability at 48 h, 10 µM in data set [5] worked out at 87%; in data set [6], 90.9%; in data set [7] it was 85.7%.

`O=C(CCl)Nc1ccc2c(c1)OC(F)(F)O2` [PCM-0102738] registered a PCAF in data set [1] of 0. In data set [2], the NUDT7 is reported as 0. In data set [3], this molecule displayed a BSA of 0. In data set [4], this molecule registered an OTUB2 of 0.41. For the same molecule, the viability at 48 h, 10 µM was determined as 14.2% in data set [5], 30% in data set [6] and 72.2% in data set [7].

As to `Cl.O=C(CCl)N1CCN(Cc2ccsc2)CC1` [PCM-0102739], in data set [1], the PCAF was determined as 0. In addition, in data set [2], the NUDT7 came to 0.07. In data set [3], this molecule came in with a BSA of 0. Also, in data set [4], the OTUB2 is 0. In addition, the viability at 48 h, 10 µM in data set [5] is 42.7%; in data set [6] it was 55.2%; in data set [7], 85.9%.

Molecule `C=CC(=O)Nc1ccc([N+](=O)[O-])cc1` [PCM-0102740] displayed a PCAF in data set [1] of 0. Besides, in data set [2], the NUDT7 was 0.05. Also, the BSA in data set [3] is 0. In addition, the OTUB2 in data set [4] was determined as 0. Also, the viability at 48 h, 10 µM turned out to be 87.6% in data set [5], 77.4% in data set [6] and 71.6% in data set [7].

Molecule `O=C(CCl)Nc1cc(C(F)(F)F)ccc1N1CCOCC1` [PCM-0102741] displayed a PCAF in data set [1] of 0. Besides, the NUDT7 in data set [2] was found to be 0. In data set [3], this molecule gave a BSA of 0. Also, the OTUB2 in data set [4] is listed as 0.1. Moreover, the viability at 48 h, 10 µM amounted to 118% in data set [5], 102% in data set [6] and 111% in data set [7].
